# Read-outs that look alike come from different tables or passages of the source.
# Experiments:
# [1] = test system: Acinetobacter baumannii; assay: MIC and MBC, broth microdilution (Example 4, Table 3); format: cell-based; details: for MBC: Acinetobacter baumannii
# [2] = test system: Gram-positive bacteria; assay: MIC, agar dilution, anaerobic bacteria (Example 9, Tables 21, 26); format: cell-based
# [3] = test system: P. aeruginosa; assay: Systemic infection lethal mouse model, ED50 (Example 15, Table 33); details: for Survival rate: 7 days after infection; for ED50: Pseudomonas aeruginosa, in Mus musculus, sc
# Experimental: The test strains on the agar medium were suspended in saline and adjusted to a Klett unit of about 200 using a Klett Photoelectric Colorimeter. […] Male ICR mice were inoculated intraperitoneally with 0.2 mL of the bacterial suspension. Two hours after the inoculation, saline or a solution for administering the agent of each concentration was administered subcutaneously to the mice in a single dose. The number of mice that survived from Day 1 to Day 7 after infection was recorded.
# [4] = test system: E. coli; assay: MIC, Gram-negative bacteria clinically isolated in the United States (Example 8, Table 16); format: cell-based; details: E. coli (80 strains) isolated in the United States, Compound A µg/mL in parentheses
# [5] = test system: Serratia marcescens; assay: MIC and MBC, broth microdilution (Example 4, Table 3); format: cell-based; details: Serratia marcescens CDC-124 (SME-3)
# [6] = test system: Bacteroides spp.; assay: MIC, agar dilution, anaerobic bacteria (Example 9, Tables 17, 22); format: cell-based; details: for MIC: (n)=Compound A µg/mL, 0=Compound A alone antibacterial
# [7] = Acinetobacter baumannii CDC-303 (OXA-23, OXA-66)
smiles,measurement,setting,value
"C[C@@H](O)[C@H]1C(=O)N2C(C(=O)O)=C(S[C@@H]3CN[C@H](C(=O)N(C)C)C3)[C@H](C)[C@H]12 [MEPM, meropenem]",MIC,[1]; [7],64 mg/L
same,MIC,"[1]; Acinetobacter baumannii CDC-304 (OXA-66, OXA-72), read-out: MIC",64 mg/L
same,MBC,[1]; [7],64 mg/L
same,MBC,"[1]; Acinetobacter baumannii CDC-304 (OXA-66, OXA-72)",64 mg/L
same,MIC50,[2],0.06 mg/L
same,MIC90,[2],2 mg/L
same,MIC,"[2]; ATCC43255, KUB No. 3518 Clostridioides difficile ATCC 43255, read-out: MIC",2 mg/L
same,MIC,"[2]; ATCC700057, KUB No. 2978 Clostridioides difficile ATCC 700057, read-out: MIC",2 mg/L
same,MIC,"[2]; ATCCBAA1803, KUB No. 3511 Clostridioides difficile ATCC BAA-1803, read-out: MIC",4 mg/L
same,MIC,"[2]; ATCCBAA1870, KUB No. 3385 Clostridioides difficile ATCC BAA-1870, read-out: MIC",4 mg/L
same,MIC,"[2]; Cutibacterium acnes, ATCC11827",≤ 0.03 mg/L
same,MIC,"[2]; Eggerthella lenta, ATCC43055",0.5 mg/L
same,MIC,"[2]; Finegoldia magna, ATCC29328",0.06 mg/L
same,MICrange,[2]; Gram-positive bacteria,≤0.03 to 4 µg/mL
same,MIC50,"[2]; Gram-positive bacteria, read-out: MIC50",0.06 mg/L
same,MIC90,"[2]; Gram-positive bacteria, read-out: MIC90",2 mg/L
same,MIC,"[2]; KUB No. 3013 Bulleidia extructa, read-out: MIC",0.12 mg/L
same,MIC,"[2]; KUB No. 3014 Atropobium rimae, read-out: MIC",0.06 mg/L
same,MIC,[2]; Olsenella uli,≤ 0.03 mg/L
same,MIC,"[2]; Peptoniphilus asaccharolyticus, ATCC14963",≤ 0.03 mg/L
same,MIC,[2]; Peptoniphilus indolicus,≤ 0.03 mg/L
same,MIC,[2]; Peptostreptococcus anaerobius,2 mg/L
same,MIC,"[2]; Schaalia odontolytica, ATCC17929, KUB No. 3488 Actinomyces odontolyticus ATCC 17929, read-out: MIC",0.12 mg/L
same,Survival rate,"[3]; CDC-90 (Serine), Dose 10 mg/kg",0%
same,Survival rate,"[3]; CDC-90 (Serine), Dose 30 mg/kg",10%
same,Survival rate,"[3]; CDC-90 (Serine), Dose 100 mg/kg",90%
same,Survival rate,"[3]; CDC-90 (Serine), Dose 300 mg/kg",100%
same,Survival rate,"[3]; CDC-110 (Metallo), Dose 100 mg/kg",0%
same,Survival rate,"[3]; CDC-110 (Metallo), Dose 150 mg/kg",30%
same,Survival rate,"[3]; CDC-110 (Metallo), Dose 200 mg/kg",60%
same,Survival rate,"[3]; CDC-110 (Metallo), Dose 300 mg/kg",60%
same,ED50,"[3]; 2 h, read-out: ED50 of MEPM (95% confidence intervals), CDC-90 (Serine), single subcutaneous dose 2 hours after infection, with cilastatin at 100 mg/kg",54.8 mg/kg
same,ED50,"[3]; 2 h, read-out: ED50 of MEPM (95% confidence intervals), CDC-110 (Metallo), single subcutaneous dose 2 hours after infection, with cilastatin at 100 mg/kg",218 mg/kg
same,ED50,"[3]; read-out: ED50 of MEPM, P. aeruginosa CDC-90 (KPC-5), single s.c. dose, with cilastatin 100 mg/kg",54.8 mg/kg
same,ED50,"[3]; read-out: ED50 of MEPM, P. aeruginosa CDC-110 (VIM-2), single s.c. dose, with cilastatin 100 mg/kg",218 mg/kg
same,MICrange,[4],≤0.125 to 16 µg/mL
same,MIC50,[4]; Escherichia coli,≤ 0.125 mg/L
same,MIC90,[4]; Escherichia coli,≤ 0.125 mg/L
same,MIC,[5],64 mg/L
same,MIC50,[6]; Bacteroides spp.,0.5 mg/L
same,MIC90,[6]; Bacteroides spp.,4 mg/L
same,MIC,"[6]; Bacteroides, KUB No. 2982 Bacteroidesfragilis",0.12 mg/L
same,MIC,"[6]; Bacteroides, KUB No. 6464 Bacteroides vulgarus",0.12 mg/L
same,MIC,"[6]; Bacteroides, KUB No. 6480 Bacteroides thetaioraomicron",1 mg/L
same,MIC,"[6]; Bacteroides, KUB No. 6487 Bacteroides thetaiotamicron",2 mg/L
same,MIC50,"[6]; Bacteroides, n=56, combination: Compound A at 4 ug/mL, read-out: MIC50",0.5 mg/L
same,MIC90,"[6]; Bacteroides, n=56, combination: Compound A at 4 ug/mL, read-out: MIC90",4 mg/L
same,MIC,[6]; KUB No. 2977 Bacteroides thetaiotaomicron ATCC 29741,0.25 mg/L
same,MIC,[6]; KUB No. 2983 Bacteroides fragilis,4 mg/L
same,MIC,[6]; KUB No. 2984 Bacteroides thetaiotaomicron,0.25 mg/L
same,MIC,[6]; KUB No. 3003 Bacteroides fragilis ATCC 25285,0.12 mg/L
same,MIC,[6]; KUB No. 3009 Bacteroides ovatus,1 mg/L
same,MIC,[6]; KUB No. 6458 Bacteroides fragilis,0.5 mg/L
same,MIC,[6]; KUB No. 6459 Bacteroides stercoris,0.25 mg/L
same,MIC,[6]; KUB No. 6460 Bacteroides thetaiotaomicron,2 mg/L
same,MIC,[6]; KUB No. 6461 Bacteroides fragilis,0.5 mg/L
same,MIC,[6]; KUB No. 6463 Bacteroides fragilis,0.12 mg/L
same,MIC,[6]; KUB No. 6465 Bacteroides thetaiotaomicron,0.5 mg/L
same,MIC,[6]; KUB No. 6466 Bacteroides fragilis,4 mg/L
same,MIC,[6]; KUB No. 6467 Bacteroides fragilis,0.12 mg/L
same,MIC,[6]; KUB No. 6468 Bacteroides fragilis,4 mg/L
same,MIC,[6]; KUB No. 6469 Bacteroides fragilis,0.25 mg/L
same,MIC,[6]; KUB No. 6470 Bacteroides fragilis,0.25 mg/L
same,MIC,[6]; KUB No. 6471 Bacteroides fragilis,0.12 mg/L
same,MIC,[6]; KUB No. 6472 Bacteroides stercoris,1 mg/L
same,MIC,[6]; KUB No. 6473 Bacteroides fragilis,0.25 mg/L
same,MIC,[6]; KUB No. 6474 Bacteroides fragilis,1 mg/L
same,MIC,[6]; KUB No. 6475 Bacteroides thetaiotaomicron,2 mg/L
same,MIC,[6]; KUB No. 6476 Bacteroides vulgatus,0.5 mg/L
same,MIC,[6]; KUB No. 6477 Bacteroides fragilis,4 mg/L
same,MIC,[6]; KUB No. 6478 Bacteroides fragilis,0.12 mg/L

# From EP4635500A1, “THERAPEUTIC AGENT FOR BACTERIAL INFECTION” (Sumitomo Pharma Co., Ltd., priority 2022, dated 2024)
